According to patent publication US20250296953A1, “3,4-THIAZOLO-STEROIDS AND METHODS OF MAKING AND USING THE SAME” (Arkansas State University - Jonesboro, priority 2018, published 2025):

Key:
Experiment in all cases: Melanoma cytotoxicity assay (resazurin)
Format in all cases: cell-based
Details in all cases: human, 24 h
LOX IMVI = system: LOX IMVI
Method: (§1) Cytotoxicity Assay: Melanoma cells (˜4000 cells in each well) were incubated in a 96 well plates at 37° C. in 5% CO2 for 24 hours. Compounds were added in triplicates and the plate was further incubated for 24 hours. DMSO and dacarbazine were added as technical and positive controls respectively. Next day resazurin was added and the plate was further incubated for 6 hours followed by reading the plate at 544 nm (excitation) and 590 nm (emission) using BMG Labtech Fluostar Optima plate reader. IC50 values were determined by using Graphpad Prism.
(§2) On day 1, the cell line trypsinized and centrifuged to form cell pellet. The pellet was diluted in media, then counted using Countess automated cell counter. Approximately 4000 cells (198 uL) per well plated in […]. A control well of 200 uL growth media was also prepared. Wells closest to plate perimeter were filled with 200 uL PBS to prevent inner well evaporation. The 96 well plates are incubated in 37° C. incubator at 5% CO2 for 24 hours.
(§3) On day 2, compounds were added (in triplicate) along with DMSO/Dacarbazine controls (2 uL) added to bring wells to volume of 200 μL. The 96 well plates are incubated in 37° C. incubator at 5% CO2 for 24 hours.
(§4) On day 3, 40 μL of 0.15 mg/ml reszurin solution added to wells. Samples were placed in a 37° C. incubator at 5% CO2 for 6 hours. Excitation and emission for fluorescence measured at 544 nm and 590 nm using BMG Labtech Fluostar Optima plate reader
(§5) Percent viability determined by taking average of each triplicate well fluorescence and subtracting GM well reading to remove the background signal. This difference is then divided by the average of the negative control (DMSO) wells to determine percent viability.
(§6) IC50s were determined by using cereal dilution of compound to determine viability. Viabilities and concentration of cells are analyzed in Graphpad Prism by creating sigmoidal curve graph, which will determine the IC50 concentration.
(§7) We analyzed the ability of the thiazole-androstane derivatives to inhibit growth in various melanoma cell lines. The growth inhibition against melanoma cell lines of various compound is shown below in Tables 19 and 20. Inhibition results are reported as the IC50 concentration in μM of the indicated compound or as the percent viability […] of the indicated compound. NA=not available.

SK-MEL-25 = system: SK-MEL-25
Method: as §1, §2, §3, §4, §5, §6, §7

SK-MEL-28 = system: SK-MEL-28
Method: as §1, §2, §3, §4, §5, §6, §7

SK-MEL-5 = system: SK-MEL-5
Method: as §1, §2, §3, §4, §5, §6, §7

MALME-3M = system: MALME-3M
Method: as §2, §3, §4, §5, §6, §7

| Compound | LOX-IMVI (% viability) (LOX IMVI) [%] | SK-MEL-25 (% viability) (SK-MEL-25) [%] | SK-MEL-28 (% viability) (SK-MEL-28) [%] | SK-MEL-5 (% viability) (SK-MEL-5) [%] | MALME-3M (% viability) (MALME-3M) [%] |
| --- | --- | --- | --- | --- | --- |
| C[C@]12CC[C@H]3[C@@H](CC=C4c5sc(Nc6ccc(C(=O)O)cc6)nc5CC[C@@]43C)[C@@H]1CC[C@@H]2O [IIIa.26, 4-[[(1S,2R,13R,14S,17S,18S)-17-hydroxy-2,18-dimethyl-8-thia-6-azapentacyclo[11.7.0.02,10.05,9.014,18]icosa-5(9),6,10-trien-7-yl]amino]benzoic acid] | 79 | 37.03 | 69.56 | 93.06 | 113.38 |
| C[C@]12CC[C@H]3[C@@H](CC=C4c5sc(Nc6cccc(C(=O)O)c6)nc5CC[C@@]43C)[C@@H]1CC[C@@H]2O [IIIa.35, 3-[[(1S,2R,13R,14S,17S,18S)-17-hydroxy-2,18-dimethyl-8-thia-6-azapentacyclo[11.7.0.02,10.05,9.014,18]icosa-5(9),6,10-trien-7-yl]amino]benzoic acid] | 89 | 54.19 | 66.69 | 106.21 | 122.92 |
